Data taken from publication PMC7055300, “Theileria parasites subvert E2F signaling to stimulate leukocyte proliferation” (Scientific Reports, 2020).
Entries after “also recorded” stand apart in the source; their conditions may differ.

How the values were obtained:
[1] = system: T. parva-transformed TpMD409.B2 cells; experiment: Western blot of RB/E2F pathway proteins after parasite killing; assay type: cell-based, bovine; conditions: buparvaquone 50 ng/ml
Description: The discovery of these peptides led us to investigate the particular RB/E2F signaling components in Theileria-infected cells. Eight E2F transcription factor genes have been identified in mammals, which can be divided into two groups: activators (E2F-1, E2F-2, E2F-3a), which can bind RB, and repressors (e.g. E2F-3b, E2F-4, E2F-5), which can bind RB, p107 and p130. The balance between the activator and repressor E2Fs seems to be primarily controlled by the phosphorylation status of the associated pocket proteins to which they bind. E2F interactions with the Dimerization Partner (DP) ligands are also important for regulating E2F transcription factor activity. We used Western blot to compare the levels of RB family, E2F, and DP-1 protein between T. parva-transformed cells that were left untreated with those treated with buparvaquone to kill the parasite and induce an arrest in host cell proliferation. By comparing expression levels between the buparvaquone-treated and untreated groups, we can determine parasite-dependent changes in the expression levels of these proteins. […] These faster migrating bands likely correspond to hypophosphorylated, proliferation-suppressive forms of RB and p130, at 24 h and 48 h after treatment with buparvaquone.
Figure 2 RB/E2F signaling is activated by Theileria parasites. (a) Western blot analysis (left) of E2F-1, E2F-3 E2F-4, DP-1, pRB, and p130 expression in TpMD409B.2 cells, either left untreated (−), or treated (+) for 24 h and 48 h with buparvaquone (BQ), including band intensity quantification (right). Shown are representatives of three independent experiments. (b) E2F DNA binding activity in TpMD409B.2 cells was assayed by EMSA using gP32- labeled double-stranded oligonucleotide spanning E2F binding sites from the dhfr gene promoter. Left panel, nuclear extracts from TpMD409B.2 cells were incubated with γP32-labeled probe in absence or presence of a 100 fold molar excess of unlabeled wild type (WT), or mutated (MUT) double-stranded oligonucleotide. Binding reactions were resolved by non-denaturing polyacrylamide gel, which was processed afterwards for autoradiography. Right panel, EMSA analysis of E2F DNA binding activity in nuclear extracts from untreated, proliferating TpMD409B.2 cells (−) and TpMD409B.2 cells treated for 24 and 48 h with the parasiticidal drug buparvaquone (+). Arrows indicate E2F in complex with RB family proteins (Complexes) or free E2F protein (Free). (c) Flow cytometric analysis of BrdU incorporation and DNA content in TpMD409B.2 cells, either left untreated (control), or treated with buparvaquone for 24 h and 48 h. Shown is a representative of three independent experiments. […]

[2] = system: T. parva-transformed TpMD409.B2 cells; experiment: Flow cytometric BrdU incorporation; assay type: cell-based, bovine; conditions: untreated vs buparvaquone-treated, 24 h and 48 h
Description: The discovery of these peptides led us to investigate the particular RB/E2F signaling components in Theileria-infected cells. Eight E2F transcription factor genes have been identified in mammals, which can be divided into two groups: activators (E2F-1, E2F-2, E2F-3a), which can bind RB, and repressors (e.g. E2F-3b, E2F-4, E2F-5), which can bind RB, p107 and p130. The balance between the activator and repressor E2Fs seems to be primarily controlled by the phosphorylation status of the associated pocket proteins to which they bind. E2F interactions with the Dimerization Partner (DP) ligands are also important for regulating E2F transcription factor activity. We used Western blot to compare the levels of RB family, E2F, and DP-1 protein between T. parva-transformed cells that were left untreated with those treated with buparvaquone to kill the parasite and induce an arrest in host cell proliferation. By comparing expression levels between the buparvaquone-treated and untreated groups, we can determine parasite-dependent changes in the expression levels of these proteins. […]
Figure 2 RB/E2F signaling is activated by Theileria parasites. (a) Western blot analysis (left) of E2F-1, E2F-3 E2F-4, DP-1, pRB, and p130 expression in TpMD409B.2 cells, either left untreated (−), or treated (+) for 24 h and 48 h with buparvaquone (BQ), including band intensity quantification (right). […]

[3] = system: E2F binding sites from the dhfr gene promoter; TpMD409.B2 nuclear extracts; experiment: E2F DNA binding activity by EMSA; assay type: cell-based, bovine; conditions: buparvaquone 50 ng/ml, 24 h and 48 h
Protocol: (a) Western blot analysis (left) of E2F-1, E2F-3 E2F-4, DP-1, pRB, and p130 expression in TpMD409B.2 cells, either left untreated (−), or treated (+) for 24 h and 48 h with buparvaquone (BQ), including band intensity quantification (right). Shown are representatives of three independent experiments. (b) E2F DNA binding activity in TpMD409B.2 cells was assayed by EMSA using gP32- labeled double-stranded oligonucleotide spanning E2F binding sites from the dhfr gene promoter. Left panel, nuclear extracts from TpMD409B.2 cells were incubated with γP32-labeled probe in absence or presence of a 100 fold molar excess of unlabeled wild type (WT), or mutated (MUT) double-stranded oligonucleotide. Binding reactions were resolved by non-denaturing polyacrylamide gel, which was processed afterwards for autoradiography. […]

[4] = system: BL20/TBL20 cells; assay type: cell-based, bovine; conditions: HLM006474 10 μM; data not shown
Protocol: Since the LXCXE peptide can induce E2F activity, we investigated whether it could, on its own, increase bovine leukocyte proliferation. To extend our observations to T. annulata-infected leukocytes, we incubated T. annulata-infected B cells with WT or mutated LXNXE peptides and counted cell numbers at 24 h and 48 h.
The amino acid sequence of RB-1 based on the parasite sequence ([…]) was synthesized. Cysteine in wild type RB1 was replaced by an Asparagine (N; in bold […]). The penetrating peptide to facilitate cell entry is underlined. 3 different concentrations of peptides were used for 2 h to determine the minimum effective concentration (1 μM) with minimum toxic effect, which was used to perform each experiment as indicated.

[5] = system: T. annulata-infected TBL20 cells; experiment: Cell proliferation, T. annulata-infected B cells (TBL20), hemacytometer count; assay type: cell-based, bovine; conditions: T. annulata-infected TBL20, HLM006474 10 μM in DMSO, average of 3 independent experiments
Protocol: (§1) (a) TpMD409B.2 cells were transfected with E2F-luc (WT = wild-type E2F binding construct), or mutated E2F-luc constructs (labeled ‘mutated’) together with a CMV-lacZ plasmid to normalize for transfection efficiency. Luciferase and β-galactosidase activities were measured 24 hrs after transfection. E2F-luc relative luciferase activity normalized to mE2F-luc. Shown is the average of 3 independent experiments with standard deviation. BL20 or TBL20 cells were treated with (b) 1μM of penetrating peptides ([…]-K(FITC)) containing the TpGcpE LXCXE motif, or an LXNXE control ([…]-K(FITC)) or (c) E2F inhibitor or DMSO control, and then counted by hemacytometer after the indicated timepoints. Shown is the average of 3 independent experiments with standard deviation. Then, either (d) virulent Ode T. annulata-transformed macrophages, or (e) BL20/TBL20 T. annulata-transformed cells were transfected with E2F-luc plasmid (or mutated E2F-luc as in (c)) and incubated for 24 hrs at 37 °C. Then, cells were treated with penetrating peptides as in (b) for 2 hrs and luciferase activity was quantified. Data shown are representative of three independent experiments done with biological duplicates, with mean + standard deviation (*P-value < 0.05 compared to untreated; ^‡P-value < 0.05 compared to its respective BL20 control).
The TpMD409.B2 cell line is a T. parva Muguga-infected B-cell clone (B2) whose establishment, phenotypic characteristics and culture conditions have been described[25]–[27]. BL20 cells are a retrovirus-transformed B cell line isolated from an infected cow. To eliminate the parasite, cells were treated for the indicated time with buparvaquone (50 ng/ml, 1 mg/ml stock in ethanol; Sigma). To inhibit E2F activity, cells were treated for the indicated time with HLM006474 (10 μM in DMSO, Sigma), or DMSO (10μM; Sigma) as a control. The T. annulata-infected cell lines BL20 (B cell), as well as Ode (macrophage) cell lines are well described and characterized.
The amino acid sequence of RB-1 based on the parasite sequence ([…]) was synthesized. Cysteine in wild type RB1 was replaced by an Asparagine (N; in bold […]). The penetrating peptide to facilitate cell entry is underlined.

[6] = system: uninfected BL20 cells; experiment: Cell proliferation, uninfected B cells (BL20), hemacytometer count; assay type: cell-based, bovine; conditions: uninfected BL20, HLM006474 10 μM in DMSO, average of 3 independent experiments
Protocol: as §1, with “control). […]” for “control).”

[7] = target: T1, Retinoblastoma-1 (RB) pocket domain (Homo sapiens, UniProt P06400); experiment: Surface plasmon resonance binding to RB pocket domain; conditions: SPR, RB pocket domain on sensor chip; sequence-scrambled peptides as negative controls
T1 construct: Recombinant, purified RB pocket domain was coupled to the surface of the sensor chip; purchased LDBiopharma HTF-1035
T1 sequence (P06400 373-771 limits assumed): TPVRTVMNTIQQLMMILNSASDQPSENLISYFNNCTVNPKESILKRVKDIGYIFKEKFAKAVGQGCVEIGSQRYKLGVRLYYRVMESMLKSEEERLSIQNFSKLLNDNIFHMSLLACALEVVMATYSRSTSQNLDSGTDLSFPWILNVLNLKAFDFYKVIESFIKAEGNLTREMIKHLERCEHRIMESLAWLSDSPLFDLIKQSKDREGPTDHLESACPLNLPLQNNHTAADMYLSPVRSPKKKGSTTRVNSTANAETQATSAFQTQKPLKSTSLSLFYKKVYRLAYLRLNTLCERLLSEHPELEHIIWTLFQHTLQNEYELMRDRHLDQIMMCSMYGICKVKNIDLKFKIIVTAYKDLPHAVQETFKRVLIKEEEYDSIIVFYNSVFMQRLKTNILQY
Description: Since the proliferation of T. parva-infected host cells is thought to be critical for the pathogenesis of infection, we investigated whether synthesized peptides, each 9 to 19 amino acids long and containing these 15 T. parva motifs, could bind to RB (Supplementary Table 1). Surface plasmon resonance (SPR) was used to screen these peptides for specific RB1 pocket domain-binding activity. Recombinant, purified RB pocket domain was coupled to the surface of the sensor chip, and purified peptides were introduced at various concentrations to quantify kinetics if response curves indicated a detectable protein-protein interaction. Sequence-scrambled peptides were used as negative controls to exclude false-positive signals.
Immobilization of human RB1 protein to CM5 chip
Surface preparation. […]
Kinetics analysis of binding. […] The analytes (60 µl each, 0–25 µM in HBS-EP buffer with 0.05% P20) were injected into flow cell and the association of analyte and ligand were recorded respectively by surface plasmon resonance (SPR) with a Biacore T200 (Biacore, Inc., New Jersey). […]
Data analysis. Sensorgrams of the interaction generated by the instrument were analyzed using the software BIAeval 3.2 (Biacore Inc., New Jersey). […]

CC(C)(C)[C@H]1CC[C@H](CC2=C(O)C(=O)c3ccccc3C2=O)CC1 [buparvaquone]
pRB and p130 migration ([1]; 24 h and 48 h, vs untreated): migrate faster in parasite-killed TpMD409.B2 cells than in untreated cells
E2F-4 protein levels ([1]; 48 h): E2F-4 levels remain unaltered
slower-migrating DP-1 band ([1]; 48 h): a slower-migrating DP-1 band increases
E2F-1 and E2F-3 protein levels ([1]; after 48 h but not 24 h): E2F-1 and E2F-3 protein levels decrease
proliferation, dependence on the parasite [2]: Proliferation was also confirmed to be dependent on the parasite
E2F DNA binding activity [3]: overall decrease in E2F DNA binding activity
slow and intermediate complexes bound to E2F-dependent promoter [3]: increase in complexes migrating at slow and intermediate speed bound to an E2F-dependent promoter

CCOc1ccc(C(Nc2ccccn2)c2ccc3ccc(C)nc3c2O)cc1C (stereo not shown) [HLM006474, reference compound]
dependence of the effect on cell death [4]: not dependent on cell death
proliferation with E2F inhibitor [5]: specifically reduced the proliferation of T. annulata-infected TBL20 cells
proliferation with E2F inhibitor ([5]; listed as HLM0006474): specifically inhibit the proliferation of T. annulata-infected
proliferation with E2F inhibitor [6]: not uninfected BL20 cells
proliferation with E2F inhibitor ([6]; listed as HLM0006474): not uninfected bovine B cell lines

RDELQGVIQLLYDRYNKYI [TpMuguga_02g02355, SPR screening peptide […] with an LXXLFD motif from TpMuguga_02g02355]
RB binding in words [7]: bound the RB pocket domain with nanomolar affinity; also recorded: bind RB in a sequence-specific fashion
